The results in this text go back to publication PMC10780244, “Antileishmanial Effect of 1,5- and 1,8-Substituted Fused Naphthyridines” (Molecules, 2023).

For data set [1], the system named is intramacrophagic iRFP-L. infantum amastigotes from murine spleens. The experiment in a line: Ex vivo intramacrophagic amastigote viability assay (iRFP fluorescence). It counts as cell-based, Leishmania infantum. The note with it: for EC50: Leishmania infantum, ex vivo murine splenic explants, 72 h, read-out: Intracellular Amastigotes EC50; for SI: ratio CC50 (splenic macrophages) / EC50 (intramacrophagic amastigotes); for antileishmanial activity against Leishmania amastigotes (in words): summary in discussion. How it is done: The 1,5- and 1,8-fused naphthyridine derivatives were evaluated as antileishmanial agents in assays using two forms of L. infantum amastigotes: axenic amastigotes recovered from bone marrow cells of infected BALB/c mice and intramacrophagic amastigotes obtained from splenic explants of the same subjects. The L. infantum strain used is a genetically modified strain previously engineered by our group to constitutively express the infrared protein iRFP from Rhodopseudomonas palustris bacteriophytochrome (iRFP L. infantum). This strain allows monitoring the viability of both forms of the parasite by quantifying the fluorescence emitted at 700 nm by the iRFP protein produced by living amastigotes.
(§1) Amastigotes obtained from mouse bone marrow cells were used to perform a first screening with the complete series of fused 1,5- and 1,8-naphthyridines. […] The toxicity of these selected compounds was assessed in non-infected splenic cells and the cytotoxic concentration (CC50) value obtained was used to calculate the selective index (SI). The oral tolerability of these same compounds was tested by calculating the viability of murine intestinal organoids exposed to two concentrations (50 and 25 µM).
Intramacrophagic amastigotes were obtained by cutting spleens into small pieces that were incubated for 25 min with 0.5 mL of collagenase D (2 mg/mL) (Merck, Darmstadt, Germany) dissolved in 4.5 mL buffer (10 mM HEPES, pH 7.4, 150 mM NaCl, 5 mM KCl, 1 mM MgCl2 and 1.8 mM CaCl2). The cell suspension was filtered through a 100 µm cell strainer. After erythrocyte lysis (150 mM NH4Cl, 1 mM KHCO3, 0.1 mM EDTA), splenocytes were centrifuged three times at 500× g for 7 min at 4 °C, with PBS washes between each centrifugation. The splenocyte suspension containing intramacrophagic amastigotes was resuspended in RPMI medium (Gibco, Fisher Scientific, Waltham, MA, USA) supplemented with 20% FBS, 1 mM sodium pyruvate, 24 mM NaHCO3, 2 mM L-glutamine, 1× RPMI vitamins, 25 mM HEPES and antibiotic cocktail.
For the ex vivo intramacrophagic amastigote assay, 40 μL of one-half or one-third serial dilutions of each diluted in supplemented RPMI medium, were added to black 384-well optical-bottom black plates containing 40 μL of murine splenocytes obtained as described above. Positive controls (containing 10 μM of AMB) and negative controls (containing 0.1% v/v DMSO) were included. The plates were incubated at 37 °C and 5% CO2, for a maximum period of 72 h and the assays were performed by triplicate.
The viability of axenic and intramacrophage amastigotes was calculated measuring the fluorescence emitted at 700 nm by the iRFP protein from live parasites and recorded by an Odyssey infrared imaging system (Li-Cor, NE, USA). The fluorescence emitted by the negative control wells was considered 100% viability, whereas the fluorescence emitted by the positive control wells, was adjusted to 0% viability.
Fluorescence emitted by intramacrophage amastigotes were plotted against the drug concentration using the nonlinear fit analysis provided by the Sigma Plot 10.1 statistical package to obtain EC50 values.

A short description of data set [2]: Drug tolerance in murine intestinal organoids (alamarBlue). The format is cell-based, mouse. The following applies: Balb/c, mouse, murine intestinal organoids, 72 h exposure. How it is done:
as §1
Preparation and maintenance of murine intestinal organoids cultures were performed following the protocols published by Stemcell Technologies™ (https://www.stemcell.com/intestinal-epithelial-organoid-culture-with-intesticult-organoid-growth-medium-mouse-lp.html#protocols, accessed on 14 December 2023) with some modifications. Briefly, a section of small intestine from a Balb/c mouse was extracted and washed with ice-cold PBS. This section was cut into pieces around 2 mm each, washed 15–20 times with ice-cold PBS and incubated with Gentle Cell Dissociation Reagent (Stemcell Technologies™, Vancouver, BC, Canada) for 20 min. Then, the pieces were resuspended in ice-cold PBS with 0.1% BSA and left to settle at the bottom of the tube. The supernatant was collected and filtered through a 70 µm strainer. This process was repeated a total of four times obtaining different fractions. Cells from these fractions were centrifugated at 300× g for 5 min at 4 °C, washed with ice-cold PBS + 0.1% BSA and resuspended on 10 mL of ice-cold DMEM/F12 supplemented with glutamine and HEPES 15 mM (Gibco, Thermo Fisher Scientific, Waltham, MA, USA). After the evaluation under a microscope, the fraction with the highest crypt number but the lowest detritus presence was chosen. This fraction was centrifugated at 200× g for 5 min at 4 °C and the pellet was resuspended in a 1:1 mix of Geltrex GFR LDEV-free (Gibco, Fisher Scientific, Waltham, MA, USA) and IntestiCult™ Organoid Grow Medium Mouse (Stemcell Technologies™, Vancouver, BC, Canada). Fifty microliters of the suspension were pipetted into the middle of each well of a pre-heated 24-well plate and incubated at 37 °C for 10 min to allow polymerization of the matrix. In the end, 500 µL of IntestiCult™ Organoid Grow Medium was added to each well. The plates were incubated at 37 °C and 5% CO2, changing the culture medium every 48 h. Organoids were split 1 into 4 plates after 7 days.
Drug tolerance assays using murine intestinal organoids were performed in 384-well plates, following a protocol based on previous works and introducing several modifications. Briefly, organoids were prepared discarding the culture medium and adding 800 µL of Gentle Cell Dissociation Reagent (Stemcell Technologies™, Vancouver, BC, Canada) directly on top of matrix domes. After 1 min incubation at room temperature, the matrix was broken by pipetting, and the content of the wells was retrieved. The suspension was incubated at room temperature for 10 min on a rocking platform at 20 rpm, and centrifugated at 300× g for 5 min at 4 °C. The pellet was resuspended in 10 mL of ice-cold DMEM/F12 (Gibco, Fisher Scientific, Waltham, MA, USA) supplemented with glutamine and HEPES 15 mM and centrifugated again at 200× g for 5 min at 4 °C. Cells were resuspended in a 1:1 mix of Geltrex GFR LDEV-free and IntestiCult™ Organoid Grow Medium Mouse (Stemcell Technologies™, Vancouver, Canada). The final volume of the mix was calculated to achieve a 4-fold dilution in the final plate compared to the original plate. The mix was distributed in a 384-well plate (8 µL/well) which was incubated at 37 °C for 10 min. After that, 32 µL of IntestiCult™ Organoid Grow Medium Mouse (Stemcell Technologies™, Vancouver, Canada) were added to each well. The plate was incubated at 37 °C and 5% CO2 and after 4 days, mature organoids were exposed to drugs, alone or combined. For positive control, hydrogen peroxide at the final concentration of 0.15 % v/v was used. […]
Background: Resazurin is reduced to fluorescent resorufin, in cell work by metabolically active cells.

Broadly, the EC50 is the midpoint of the concentration-response curve. The term viability denotes a read-out of living cells in per cent, often relative to untreated cells. Regarding `Cc1ccc(S(=O)(=O)N2CC3C(Nc4ncccc4C3c3ccccc3)c3ccccc32)cc1` (centres unmarked) [Compound 14a], in data set [1], the EC50 was determined as 9.34 ± 0.77 µM, the SI amounted to 2.9 and the “antileishmanial activity against Leishmania amastigotes (in words)” value (“antileishmanial activity” for short) is reported as “significant antileishmanial activity”. Further, in data set [2], the viability at 72 h, 25 µM stood at 90 ± 9% and the viability at 72 h, 50 µM amounted to 56 ± 14%.
As to `O=c1oc2ccccc2c2nc3ncc(Br)cc3c(-c3ccccc3)c12` [Compound 13b], in data set [1], the EC50 came out at 7.53 ± 0.97 µM and the SI was more than 6.6. In data set [2], this molecule returned a viability at 72 h, 25 µM of 90 ± 5% and a viability at 72 h, 50 µM of 61 ± 19%.
For `Cc1ccc(S(=O)(=O)N2CC3C(Nc4cccnc4[C@H]3c3ccccc3)c3ccccc32)cc1` (some centres unmarked) [Compound 8a], in that order: 5.3 ± 0.71 µM, 8.5, 93 ± 7% and 89 ± 10%.
As to `COc1ccc2c(n1)[C@@H](c1ccccc1)C1CN(S(=O)(=O)c3ccc(C)cc3)c3ccccc3C1N2` (some centres unmarked) [Compound 8c], the EC50 in data set [1] is 4.93 ± 0.35 µM. In data set [2], this molecule had a viability at 72 h, 25 µM of more than 100% and a viability at 72 h, 50 µM of 100%.
For `Cc1ccc(S(=O)(=O)N2CC3C(Nc4ccc(Br)nc4[C@H]3c3ccccc3)c3ccccc32)cc1` (some centres unmarked) [Compound 8d], in that order: 34.4 ± 9.7 µM, 4 ± 1% and 3 ± 1%.
On to `O=c1oc2ccccc2c2nc3ncccc3c(-c3ccccc3)c12` [Compound 13a], for which, in data set [1], the half-maximal effective concentration (EC50) was 10.6 ± 1.21 µM, the SI was 3.3 and the “antileishmanial activity” value is “significant antileishmanial activity”. In data set [2], this molecule returned a viability at 72 h, 25 µM of 87 ± 15% and a viability at 72 h, 50 µM of 53 ± 5%.
`O=C1Oc2ccccc2C2Nc3ccc(Br)nc3[C@@H](c3ccccc3)C12` (some centres unmarked) [Compound 6b]: in data set [1], the concentration giving a half-maximal response (EC50) was 12.9 ± 0.82 µM and the SI is recorded as 4.3. In addition, in data set [2], the viability at 72 h, 25 µM amounted to 72 ± 5% and the viability at 72 h, 50 µM came out at 60 ± 7%.
For the molecule `Cc1ccc(S(=O)(=O)N2Cc3c(nc4ncc(Br)cc4c3-c3ccccc3)-c3ccccc32)cc1` [Compound 15b], in data set [1], the concentration giving a half-maximal response (EC50) came out at 6.16 ± 0.54 µM, the SI came to 4.0 and the “antileishmanial activity” value is given as “significant antileishmanial activity”. Further, in data set [2], the viability at 72 h, 25 µM turned out to be 58 ± 16% and the viability at 72 h, 50 µM worked out at 13 ± 3%.
Take `Fc1ccc2c(c1)C1Nc3ncccc3[C@@H](c3ccccc3)C1CO2` (some centres unmarked) [Compound 10b]: in data set [1], the EC50 stood at 7.57 ± 0.44 µM and the SI amounted to 6.7. In data set [2], this molecule registered a viability at 72 h, 25 µM of 99 ± 8% and a viability at 72 h, 50 µM of 90%.
On to `c1ccc(-c2c3c(nc4ncccc24)-c2ccccc2OC3)cc1` [Compound 11a], for which the 50% effective concentration (EC50) in data set [1] was 7.7 ± 0.29 µM. In data set [2], this molecule came in with a viability at 72 h, 25 µM of 92 ± 1% and a viability at 72 h, 50 µM of 96 ± 1%.
`COc1ccc2nc3c(c(-c4ccccc4)c2n1)c(=O)oc1ccccc13` [Compound 7c]: in data set [1], the concentration giving a half-maximal response (EC50) came to 37 ± 2.87 µM and the SI is reported as 2.6. In data set [2], this molecule showed a viability at 72 h, 25 µM of 99 ± 4% and a viability at 72 h, 50 µM of 85 ± 13%.
